Laboratory results published in article PMC12166061, “Crystallographic fragment screening reveals ligand hotspots in TRIM21 PRY-SPRY domain” (Communications Chemistry, 2025).
Where two headings read alike, the source gives them in different places.

What was measured:
Assay type in all cases: binding
[1] = biological target: T1, murine TRIM21 PRY-SPRY domain (Mus musculus, UniProt Q62191); assay: Differential scanning fluorimetry (DSF, ΔTm), mouse TRIM21 PRY-SPRY domain
T1 construct: mouse TRIM21 PRY-SPRY domain (residues V291-M470, UniProt-ID: Q62191); made in house; host or cells: E. coli BL21(DE3)
T1 sequence (Q62191 291-470): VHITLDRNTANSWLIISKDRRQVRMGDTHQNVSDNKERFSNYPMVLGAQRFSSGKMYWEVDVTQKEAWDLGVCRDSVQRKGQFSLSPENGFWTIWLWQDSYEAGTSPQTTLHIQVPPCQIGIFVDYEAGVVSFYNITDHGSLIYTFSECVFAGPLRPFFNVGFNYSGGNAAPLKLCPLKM
Method: (§1) Briefly, recombinant murine and human TRIM21 PRY-SPRY domain at a concentration of 8 μM were mixed with 2 mM compound in their respective SEC buffer. SYPRO Orange (5000×, Invitrogen) was added as a fluorescence probe (1 µl per mL). Subsequently, temperature-dependent protein unfolding profiles were measured using the QuantStudio™ 5 realtime PCR machine (Thermo Fisher). Excitation and emission filters were set to 465 nm and 590 nm, respectively. The temperature was raised with a step rate of 3 °C per minute. Data points were analysed with the internal software (Thermal Shift SoftwareTM Version 1.4, Thermo Fisher) using the Boltzmann equation to determine the inflection point of the transition curve.

[2] = biological target: T2, human TRIM21 PRY-SPRY domain (Homo sapiens, UniProt P19474); assay: Differential scanning fluorimetry (DSF, ΔTm), human TRIM21 PRY-SPRY domain
T2 construct: Human TRIM21 PRY-SPRY domain (residues V287-I465, UniProt-ID: P19474); His6 (N, cleaved yes); SUMO (N, cleaved yes); made in house; host or cells: E. coli BL21(DE3)
Method: as §1

His-mTRIM21 PRYSPRY = biological target: T3, His-mTRIM21 PRYSPRY (Mus musculus, UniProt Q62191); assay: SPR fragment screening and dose response, mouse TRIM21 PRY-SPRY
T3 construct: mouse TRIM21 PRY-SPRY domain (residues V291-M470, UniProt-ID: Q62191); made in house; host or cells: E. coli BL21(DE3)
T3 sequence (Q62191 291-470): T1 sequence (Q62191 291-470)
Method: (§2) His-mTRIM21 PRYSPRY and His-SUMO-hTRIM21 PRY-SPRY were immobilized onto flow channels (FC) FC2, FC3, and FC4 of a Series S sensor chip NTA (Cytiva). […] Proteins (10–20 µg mL^−1 in HBS-P+) were injected at 10 µL min^−1 to achieve response levels of 3500–4300 RU for mTRIM21 and 3600–4000 RU for hTRIM21. Flow channel 1 (FC1) was used as a reference surface. Surface deactivation and nickel stripping were achieved using 1 M ethanolamine and 350 mM ethylenediaminetetraacetic acid (EDTA), respectively.
(§3) Fragment screening was conducted by injecting 500 µM fragments diluted in running buffer (HBS-P+ with 1 mM TCEP and 2% (v/v) dimethyl sulfoxide (DMSO)) over all flow-channels for 30 s at 30 µL/min^−1. To account for surface drift, 50 µM of a control compound (Suramin) was injected every 15 fragment injections, and blank injections were performed every 5 fragments. Responses were analyzed by blank subtraction, reference subtraction (FC1), solvent correction, molecular weight adjustment, and drift correction using Biacore T200 Evaluation Software v3.2.1. The binding threshold for fragment hits was set based on the Suramin-binding response level.
The data was solvent-corrected, reference-subtracted (FC1), and blank-subtracted using the T200 Evaluation Software v3.2.1. Sensorgrams were subsequently replotted using Graphpad v.9 software.

[3] = biological target: T4, His-SUMO-hTRIM21 PRY-SPRY (Homo sapiens, UniProt P19474); assay: SPR fragment screening, human TRIM21 PRY-SPRY
T4 construct: Human TRIM21 PRY-SPRY domain (residues V287-I465, UniProt-ID: P19474); made in house; host or cells: E. coli BL21(DE3)
Method: as §2, §3

[4] = single dose 500 µM fragment, relative response, suramin reference threshold 100 relative RU

T4 sequence (P19474 287-465): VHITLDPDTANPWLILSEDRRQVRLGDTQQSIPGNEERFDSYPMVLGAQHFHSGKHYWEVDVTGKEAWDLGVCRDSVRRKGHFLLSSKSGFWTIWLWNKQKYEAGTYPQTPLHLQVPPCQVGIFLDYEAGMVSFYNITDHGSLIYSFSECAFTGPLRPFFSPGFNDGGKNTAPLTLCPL
T2 sequence (P19474 287-465): as above

| SMILES | Tm-shift mTRIM21 ([1]; 2 mM compound, 8 μM protein) [°C] | Tm-Shift hTRIM21 ([2]; 2 mM compound, 8 μM protein) [°C] | SPR mTRIM21 (Response) (His-mTRIM21 PRYSPRY; [4]) | SPR hTRIM21 (Response) [3, 4] | Tm-shift mTRIM21 [1] [°C] | Tm-Shift hTRIM21 [2] [°C] | SPR mTRIM21 (Response) (His-mTRIM21 PRYSPRY) | SPR hTRIM21 (Response) [3] |
| --- | --- | --- | --- | --- | --- | --- | --- | --- |
| Cc1cc(Cn2nc(C)ccc2=O)on1 [Fragment Z1079512010] | -0.3 | -0.1 | 50.4 | 45.75 | – | – | – | – |
| OC1CN(C(c2ccccc2)c2ccccc2)C1 [Fragment Z1696844792] | -0.5 | -0.8 | 107.8 | 122.6 | – | – | – | – |
| CCOc1ccccc1N1CCNCC1.Cl [Fragment Z425387594] | – | – | – | – | -0.1 | 0 | 98.47 | 61.98 |
| CS(=O)(=O)NCCc1ccc(F)cc1 [Fragment Z45705015] | -0.5 | -0.2 | 46.34 | 48.3 | – | – | – | – |
| Cc1c(C(C)NS(C)(=O)=O)cnn1C (stereo not shown) [Fragment Z369263636] | -0.1 | 0.1 | 35.15 | 36.54 | – | – | – | – |
| CC1CN(C(=O)c2cnsn2)C(C)CO1 (stereo not shown) [Fragment Z768399682] | -0.3 | 0 | 24.2 | 20.05 | – | – | – | – |
| CCc1csc(-c2c[nH]cn2)n1 [Fragment Z1530301542] | -0.1 | 0.1 | 39.06 | 45.06 | – | – | – | – |
| Cc1nsc(N2CCCNCC2)n1 [Fragment Z1578665941] | -0.1 | 0.1 | 154 | 59.22 | – | – | – | – |
| CNC(=O)C1CNCCO1 (stereo not shown) [Fragment Z1636723439] | 0.4 | 0.1 | 142.5 | 46.15 | – | – | – | – |
| CC(=O)NC1CNc2ccccc2C1 (stereo not shown) [Fragment Z1492796719] | -0.1 | -0.1 | 54.86 | 55.11 | – | – | – | – |
| CN(C)c1noc(C2CCNCC2)n1 [Fragment Z1742054999] | – | – | – | – | 0 | -0.2 | 84.81 | 41.66 |
| O=C(c1ccco1)N1CCN(C(=O)C2CC2)CC1 [Fragment Z32327641] | -0.2 | 0 | 37.82 | 35.48 | – | – | – | – |
| Cc1cc(N2CCNCC2)nc(C)n1 [Fragment Z274575916] | 0 | 0.2 | 164.1 | 76.44 | – | – | – | – |
| CS(=O)(=O)Cc1nc2ccccc2[nH]1 [Fragment Z126932614] | -0.1 | -0.2 | 65.26 | 80.74 | – | – | – | – |
| O=C(O)C1CCCN(C(=O)Cc2ccc(F)cc2)C1 (stereo not shown) [Fragment Z85893853] | -0.4 | -0.1 | 60.46 | 49.09 | – | – | – | – |
| COC1CN(Cc2cncs2)CCC1C (stereo not shown) [Fragment Z1787761777] | -1.6 | -0.3 | -42.9 | -50.75 | – | – | – | – |
| O=C(NC1CC1)c1ccc2c(c1)OCO2 [Fragment Z32367954] | – | – | – | – | -0.3 | -0.6 | 59.37 | 68.73 |
| O=C1CN(Cc2ccccc2)CC(=O)N1 [Fragment Z3220108246] | -0.5 | -0.1 | 58.83 | 60.94 | – | – | – | – |
| Cc1cc(N2CCCCC2)nc(CO)n1 [Fragment Z1980894300] | -0.2 | 0 | 77.01 | 66.59 | – | – | – | – |

| SMILES | Tm-shift mTRIM21 ([1]; 2 mM compound, 8 μM protein) [°C] | Tm-Shift hTRIM21 ([2]; 2 mM compound, 8 μM protein) [°C] | SPR mTRIM21 (Response) (His-mTRIM21 PRYSPRY; [4]) | SPR hTRIM21 (Response) [3, 4] | Tm-shift mTRIM21 [1] [°C] | Tm-Shift hTRIM21 [2] [°C] | SPR mTRIM21 (Response) (His-mTRIM21 PRYSPRY) | SPR hTRIM21 (Response) [3] |
| --- | --- | --- | --- | --- | --- | --- | --- | --- |
| CC(=O)Nc1ccc(CN2CCOCC2)cc1 [Fragment Z57450788] | 0 | 0.4 | 64.68 | 43.78 | – | – | – | – |
| NS(=O)(=O)c1ccccc1OC(F)F [Fragment Z1003146540] | -0.1 | 0.5 | 35.49 | 38.84 | – | – | – | – |
| O=C(CN1CCCC1=O)Nc1nccs1 [Fragment Z79432418] | – | – | – | – | -0.4 | -0.3 | 63.39 | 61.55 |
| CC(=O)N1CCCC(CNS(C)(=O)=O)C1 (stereo not shown) [Fragment Z438096750] | 0 | -0.2 | 42.61 | 40.93 | – | – | – | – |
| CC#CCN(C)C1CCS(=O)(=O)CC1 [Fragment Z1318110042] | 0.1 | 0 | 68.46 | 20.83 | – | – | – | – |
| CC(NS(C)(=O)=O)c1ccccc1Cl (stereo not shown) [Fragment Z133729708] | -0.8 | -0.7 | 60.52 | 74.68 | – | – | – | – |
| NC(=S)Nc1ccccc1OC(F)(F)F [Fragment Z291279160] | – | – | – | – | -0.4 | -0.2 | 37.66 | 45.42 |
| CN(C)c1ccncc1 [Fragment Z1245793018] | 0.1 | 0 | 131.3 | 47.83 | – | – | – | – |
| CC(=O)Nc1cc2c(cc1C)OCO2 [Fragment Z1635496816] | 0 | 0.1 | 140.9 | 148.8 | – | – | – | – |
| CC(=O)NCCc1ccccc1C [Fragment Z52314092] | -0.3 | -0.4 | 79.62 | 75.76 | – | – | – | – |
| CCC(=O)N1CCCC(NS(C)(=O)=O)C1 (stereo not shown) [Fragment Z405825414] | -0.2 | 0 | 27.91 | 27.61 | – | – | – | – |
| Cl.O=C(c1cn[nH]c1)N1CCCC1 [Fragment Z1266933824] | – | – | – | – | -0.3 | -0.1 | 127.7 | 193.6 |
| Cc1nccn1Cc1cccc(C#N)c1 [Fragment Z319545618] | – | – | – | – | -0.3 | 0 | 30.53 | 11.39 |
| c1cnc(N2CCC3(CCOC3)C2)cn1 (stereo not shown) [Fragment Z1401276297] | 0.2 | 0.6 | 374.2 | 640.3 | – | – | – | – |
| CC(=O)N1Cc2ccc(N)cc2C1 [Fragment Z1354416068] | 0 | 0.1 | 104.9 | 107.4 | – | – | – | – |
| CC(=O)N1CCCC2(CCCCCC2)C1 [Fragment Z1275599911] | -1.3 | -0.9 | 32.73 | 30.21 | – | – | – | – |
| CCC(=O)Nc1nc(C)cs1 [Fragment Z30820160] | – | – | – | – | -0.5 | -0.2 | 15.6 | 46.05 |
| CCOC(=O)CN1CCS(=O)(=O)CC1 [Fragment Z793778804] | 0 | 0.1 | 30.52 | 29.17 | – | – | – | – |
